# Reference: ChEMBL document CHEMBL6078668, “Synthesis and biological evaluation of lappaconitine analogues as potential anti-neuroinflammatory agents by side chain modification and scaffold hopping strategy” (Bioorg Med Chem, 2025)
# Columns and labels:
# [1] = Cytotoxicity against C57BL/6 mouse BV-2 cells assessed as survival rate at 30 uM incubated for 24 hrs by MTT assay relative to control; assay type: toxicity, cell-based; conditions: read-out: Survival
# BV-2 = test: Anti-neuroinflammatory activity against LPS-stimulated C57BL/6 mouse BV-2 cells assessed as inhibition of NO release at 30 uM preincubated with compound for 4 hrs followed by LPS addition and measured after 24 hrs by Griess reagent based assay relative to control; assay type: functional; conditions: C57BL/6, BV-2, time 28 hrs
SMILES,"viability at 24 h, 30 µM [1]",inhibition at 30 µM (BV-2)
CCN1C[C@]2(OC(=O)c3ccccc3NC(=O)S(C)(=O)=O)CC[C@H](OC)[C@]34C1[C@@H](C[C@H]23)[C@@]1(O)C[C@H](OC)[C@H]2C[C@@H]4[C@]1(O)[C@H]2OC,102%,5.1%
CCc1ccc(C(=O)Nc2ccccc2C(=O)OC)cc1,103%,37.1%
CCN1C[C@]2(OC(=O)c3ccccc3NC(=O)S(=O)(=O)c3ccccc3Cl)CC[C@H](OC)[C@]34C1[C@@H](C[C@H]23)[C@@]1(O)C[C@H](OC)[C@H]2C[C@@H]4[C@]1(O)[C@H]2OC,100%,7.8%
CCN1C[C@]2(OC(=O)c3ccccc3NC(=O)c3cccc(C)c3)CC[C@H](OC)[C@]34C1[C@@H](C[C@H]23)[C@@]1(O)C[C@H](OC)[C@H]2C[C@@H]4[C@]1(O)[C@H]2OC,112%,15.6%
C=C(C)C(=O)Nc1ccccc1C(=O)O[C@@]12CC[C@H](OC)[C@]34C([C@@H](C[C@H]13)[C@@]1(O)C[C@H](OC)[C@H]3C[C@@H]4[C@]1(O)[C@H]3OC)N(CC)C2,94.2%,12.9%
CCN1C[C@]2(OC(=O)c3ccccc3NC(=O)S(=O)(=O)c3ccc(C(C)=O)cc3)CC[C@H](OC)[C@]34C1[C@@H](C[C@H]23)[C@@]1(O)C[C@H](OC)[C@H]2C[C@@H]4[C@]1(O)[C@H]2OC,92.6%,18%
O=c1c(O)c(-c2ccc(O)c(O)c2)oc2cc(O)cc(O)c12 [QUERCETIN],99.5%,76.7%
CCN1C[C@]2(OC(=O)c3ccccc3NC(=O)C3CC3)CC[C@H](OC)[C@]34C1[C@@H](C[C@H]23)[C@@]1(O)C[C@H](OC)[C@H]2C[C@@H]4[C@]1(O)[C@H]2OC,104%,27.7%
CCN1C[C@]2(OC(=O)c3ccccc3NC(=O)S(=O)(=O)c3ccc(C4CCCCC4)cc3)CC[C@H](OC)[C@]34C1[C@@H](C[C@H]23)[C@@]1(O)C[C@H](OC)[C@H]2C[C@@H]4[C@]1(O)[C@H]2OC,93.7%,38.5%
CCN1C[C@]2(OC(=O)c3ccccc3NC(=O)S(=O)(=O)c3ccc(C#N)cc3)CC[C@H](OC)[C@]34C1[C@@H](C[C@H]23)[C@@]1(O)C[C@H](OC)[C@H]2C[C@@H]4[C@]1(O)[C@H]2OC,103%,38.8%
CCN1C[C@]2(OC(=O)c3ccccc3NC(=O)S(=O)(=O)c3ccccc3C(F)(F)F)CC[C@H](OC)[C@]34C1[C@@H](C[C@H]23)[C@@]1(O)C[C@H](OC)[C@H]2C[C@@H]4[C@]1(O)[C@H]2OC,107%,13.7%
CCN1C[C@]2(OC(=O)c3ccccc3NC(=O)S(=O)(=O)c3cccc(C#N)c3)CC[C@H](OC)[C@]34C1[C@@H](C[C@H]23)[C@@]1(O)C[C@H](OC)[C@H]2C[C@@H]4[C@]1(O)[C@H]2OC,108%,7.4%
CCCCC(CC)C(=O)Nc1ccccc1C(=O)O[C@@]12CC[C@H](OC)[C@]34C([C@@H](C[C@H]13)[C@@]1(O)C[C@H](OC)[C@H]3C[C@@H]4[C@]1(O)[C@H]3OC)N(CC)C2 (stereo partly specified),95.9%,38.2%
CCN1C[C@]2(OC(=O)c3ccccc3NC(=O)S(=O)(=O)c3cccc([N+](=O)[O-])c3)CC[C@H](OC)[C@]34C1[C@@H](C[C@H]23)[C@@]1(O)C[C@H](OC)[C@H]2C[C@@H]4[C@]1(O)[C@H]2OC,106%,11.7%
CCN1C[C@]2(OC(=O)c3ccccc3NC(=O)CC(C)C)CC[C@H](OC)[C@]34C1[C@@H](C[C@H]23)[C@@]1(O)C[C@H](OC)[C@H]2C[C@@H]4[C@]1(O)[C@H]2OC,102%,16.7%
CCN1C[C@]2(COC(=O)c3ccccc3NS(=O)(=O)c3ccc(Br)s3)CC[C@H](OC)[C@]34C1[C@@H](C[C@H]23)[C@@]1(O)C[C@H](OC)[C@H]2C[C@@H]4[C@]1(O)[C@H]2O,104%,26.2%
CCN1C[C@]2(OC(=O)c3ccccc3NC(=O)S(=O)(=O)c3cccnc3Cl)CC[C@H](OC)[C@]34C1[C@@H](C[C@H]23)[C@@]1(O)C[C@H](OC)[C@H]2C[C@@H]4[C@]1(O)[C@H]2OC,106%,56.5%
CCN1C[C@]2(OC(=O)c3ccccc3NC(=O)c3ccccc3Br)CC[C@H](OC)[C@]34C1[C@@H](C[C@H]23)[C@@]1(O)C[C@H](OC)[C@H]2C[C@@H]4[C@]1(O)[C@H]2OC,106%,32.5%
CCN1C[C@]2(OC(=O)c3ccccc3NC(=O)S(=O)(=O)c3cc(F)ccc3F)CC[C@H](OC)[C@]34C1[C@@H](C[C@H]23)[C@@]1(O)C[C@H](OC)[C@H]2C[C@@H]4[C@]1(O)[C@H]2OC,105%,53.7%
CCN1C[C@]2(OC(=O)c3ccccc3NC(=O)c3ccc(I)cc3)CC[C@H](OC)[C@]34C1[C@@H](C[C@H]23)[C@@]1(O)C[C@H](OC)[C@H]2C[C@@H]4[C@]1(O)[C@H]2OC,100%,36.1%
COC(=O)c1ccccc1NC(=O)c1ccc(Cl)s1,93.5%,48.6%
CCN1C[C@]2(OC(=O)c3ccccc3NC(=O)S(=O)(=O)c3ccc(C)cc3F)CC[C@H](OC)[C@]34C1[C@@H](C[C@H]23)[C@@]1(O)C[C@H](OC)[C@H]2C[C@@H]4[C@]1(O)[C@H]2OC,106%,26.4%
CCCCOC(=O)c1ccccc1NS(=O)(=O)c1cccc(F)c1,106%,50.9%
CCN1C[C@]2(OC(=O)c3ccccc3NC(=O)S(=O)(=O)c3cc(Br)c(Cl)s3)CC[C@H](OC)[C@]34C1[C@@H](C[C@H]23)[C@@]1(O)C[C@H](OC)[C@H]2C[C@@H]4[C@]1(O)[C@H]2OC,94.3%,29.4%
CCN1C[C@]2(OC(=O)c3ccccc3NC(=O)S(=O)(=O)c3cccc(Br)c3)CC[C@H](OC)[C@]34C1[C@@H](C[C@H]23)[C@@]1(O)C[C@H](OC)[C@H]2C[C@@H]4[C@]1(O)[C@H]2OC,102%,10%
CCN1C[C@]2(OC(=O)c3ccccc3NC(=O)C3CCOCC3)CC[C@H](OC)[C@]34C1[C@@H](C[C@H]23)[C@@]1(O)C[C@H](OC)[C@H]2C[C@@H]4[C@]1(O)[C@H]2OC,103%,36.3%
CCN1C[C@]2(OC(=O)c3ccccc3NC(=O)S(=O)(=O)CC)CC[C@H](OC)[C@]34C1[C@@H](C[C@H]23)[C@@]1(O)C[C@H](OC)[C@H]2C[C@@H]4[C@]1(O)[C@H]2OC,106%,12.5%
CCN1C[C@]2(OC(=O)c3ccccc3NC(=O)S(=O)(=O)c3ccc(-c4ccccc4)cc3)CC[C@H](OC)[C@]34C1[C@@H](C[C@H]23)[C@@]1(O)C[C@H](OC)[C@H]2C[C@@H]4[C@]1(O)[C@H]2OC,102%,41.9%
